# Assay results reported in US20210045385A1, “PYRIDAZINONE-SUBSTITUTED KETOXIMES AS HERBICIDES” (FMC Corporation, priority 2018, published 2021).
# Tests used:
# Assay type in all cases: in vivo
# [1] = test system: Italian ryegrass (Lolium multiflorum); test: Test A preemergence, visual plant response rating; details: approx. 10 days
# From the text: (§1) Seeds of plant species selected from barnyardgrass (Echinochloa crus-galli), kochia (Kochia scoparia), ragweed (common ragweed, Ambrosia elatior), Italian ryegrass (Lolium multiflorum), foxtail, giant (giant foxtail, Setaria faberii), foxtail, green (green foxtail, Setaria viridis), and pigweed (Amaranthus retroflexus) were planted into a blend of loam soil and sand and treated preemergence with a directed soil spray using test chemicals formulated in a non-phytotoxic solvent mixture which included a surfactant.
# (§2) At the same time, plants selected from these weed species and also wheat (Triticum aestivum), corn (Zea mays), blackgrass (Alopecurus myosuroides), and galium (catchweed bedstraw, Galium aparine) were planted in pots containing the same blend of loam soil and sand and treated with postemergence applications of test chemicals formulated in the same manner. Plants ranged in height from 2 to 10 cm and were in the one- to two-leaf stage for the postemergence treatment. Treated plants and untreated controls were maintained in a greenhouse for approximately 10 days, after which time all treated plants were compared to untreated controls and visually evaluated for injury. Plant response ratings, summarized in Table A, are based on a 0 to 100 scale where 0 is no effect and 100 is complete control. A dash (-) response means no test result.
# [2] = test system: barnyardgrass (Echinochloa crus-galli); test: Test A preemergence, visual plant response rating; details: approx. 10 days
# From the text: as §1, §2
# [3] = test system: foxtail, giant (giant foxtail, Setaria faberii); test: Test A preemergence, visual plant response rating; details: approx. 10 days
# From the text: as §1, §2
# kochia (Kochia scoparia) [4] = test: Test A preemergence, visual plant response rating; details: approx. 10 days
# From the text: as §1, §2
# [5] = test system: pigweed (Amaranthus retroflexus); test: Test A preemergence, visual plant response rating; details: approx. 10 days
# From the text: as §1, §2
# [6] = test system: ragweed (common ragweed, Ambrosia elatior); test: Test A preemergence, visual plant response rating; details: approx. 10 days
# From the text: as §1, §2
# [7] = test system: Italian ryegrass (Lolium multiflorum); test: Test A postemergence, visual plant response rating; details: for Ryegrass, Italian plant response rating (0 to 100 scale): 500 g ai/ha, postemergence, 0 is no effect, 100 is complete control; for Ryegrass, Italian plant response rating: Postemergence, 125 g ai/ha, 0 to 100 scale (0 no effect, 100 complete control)
# From the text: as §1, §2
# [8] = test system: barnyardgrass (Echinochloa crus-galli); test: Test A postemergence, visual plant response rating; details: for Barnyardgrass plant response rating (0 to 100 scale): 500 g ai/ha, postemergence, 0 is no effect, 100 is complete control; for Barnyardgrass plant response rating: Postemergence, 125 g ai/ha, 0 to 100 scale (0 no effect, 100 complete control)
# From the text: as §1, §2
# [9] = test system: blackgrass (Alopecurus myosuroides); test: Test A postemergence, visual plant response rating; details: for Blackgrass plant response rating (0 to 100 scale): 500 g ai/ha, postemergence, 0 is no effect, 100 is complete control; for Blackgrass plant response rating: Postemergence, 125 g ai/ha, 0 to 100 scale (0 no effect, 100 complete control)
# From the text: as §1, §2
# corn (Zea mays) = test: Test A postemergence, visual plant response rating; details: for Corn plant response rating (0 to 100 scale): 500 g ai/ha, postemergence, 0 is no effect, 100 is complete control; for Corn plant response rating: Postemergence, 125 g ai/ha, 0 to 100 scale (0 no effect, 100 complete control)
# From the text: as §1, §2
# [10] = test system: foxtail, giant (giant foxtail, Setaria faberii); test: Test A postemergence, visual plant response rating; details: for Foxtail, Giant plant response rating (0 to 100 scale): 500 g ai/ha, postemergence, 0 is no effect, 100 is complete control; for Foxtail, Giant plant response rating: Postemergence, 125 g ai/ha, 0 to 100 scale (0 no effect, 100 complete control)
# From the text: as §1, §2
# [11] = test system: galium (catchweed bedstraw, Galium aparine); test: Test A postemergence, visual plant response rating; details: for Galium plant response rating (0 to 100 scale): 500 g ai/ha, postemergence, 0 is no effect, 100 is complete control; for Galium plant response rating: Postemergence, 125 g ai/ha, 0 to 100 scale (0 no effect, 100 complete control)
# From the text: as §1, §2
# kochia (Kochia scoparia) [12] = test: Test A postemergence, visual plant response rating; details: for Kochia plant response rating (0 to 100 scale): 500 g ai/ha, postemergence, 0 is no effect, 100 is complete control; for Kochia plant response rating: Postemergence, 125 g ai/ha, 0 to 100 scale (0 no effect, 100 complete control)
# From the text: as §1, §2
# [13] = test system: pigweed (Amaranthus retroflexus); test: Test A postemergence, visual plant response rating; details: for Pigweed plant response rating (0 to 100 scale): 500 g ai/ha, postemergence, 0 is no effect, 100 is complete control; for Pigweed plant response rating: Postemergence, 125 g ai/ha, 0 to 100 scale (0 no effect, 100 complete control)
# From the text: as §1, §2
# [14] = test system: ragweed (common ragweed, Ambrosia elatior); test: Test A postemergence, visual plant response rating; details: for Ragweed plant response rating (0 to 100 scale): 500 g ai/ha, postemergence, 0 is no effect, 100 is complete control; for Ragweed plant response rating: Postemergence, 125 g ai/ha, 0 to 100 scale (0 no effect, 100 complete control)
# From the text: as §1, §2
# [15] = test system: wheat (Triticum aestivum); test: Test A postemergence, visual plant response rating; details: for Wheat plant response rating (0 to 100 scale): 500 g ai/ha, postemergence, 0 is no effect, 100 is complete control; for Wheat plant response rating: Postemergence, 125 g ai/ha, 0 to 100 scale (0 no effect, 100 complete control)
# From the text: as §1, §2
# [16] = test system: barnyardgrass (Echinochloa crus-galli); test: Test B flooded paddy test, visual plant response rating; details: 250 g ai/ha, Flood, applied to paddy water, 2-leaf stage, evaluated after 13 to 15 days
# Procedure: (§3) Plant species in the flooded paddy test selected from rice (Oryza sativa), sedge, umbrella (small-flower umbrella sedge, Cyperus difformis), ducksalad (Heteranhera limosa), and barnyardgrass (Echinochloa crus-galli) were grown to the 2-leaf stage for testing. At time of treatment, test pots were flooded to 3 cm above the soil surface treated by application of test compounds directly to the paddy water, and then maintained at that water depth for the duration of the test. Treated plants and controls were maintained in a greenhouse for 13 to 15 days, after which time all species were compared to controls and visually evaluated. […] A dash (-) response means no test result.
# [17] = test system: ducksalad (Heteranhera limosa); test: as above; details: 250 g ai/ha, Flood, applied to paddy water, 2-leaf stage, evaluated after 13 to 15 days
# Procedure: as §3
# rice (Oryza sativa) = test: as above; details: 250 g ai/ha, Flood, applied to paddy water, 2-leaf stage, evaluated after 13 to 15 days
# Procedure: as §3
# [18] = test system: sedge, umbrella (small-flower umbrella sedge, Cyperus difformis); test: as above; details: 250 g ai/ha, Flood, applied to paddy water, 2-leaf stage, evaluated after 13 to 15 days
# Procedure: as §3
Structure (SMILES),"Ryegrass, Italian plant response rating (0 to 100 scale) ([1]; 125 g ai/ha Preemergence)","Ryegrass, Italian plant response rating (0 to 100 scale) ([1]; 500 g ai/ha Preemergence)",Barnyardgrass plant response rating (0 to 100 scale) ([2]; 125 g ai/ha Preemergence),Barnyardgrass plant response rating (0 to 100 scale) ([2]; 500 g ai/ha Preemergence),"Foxtail, Giant plant response rating (0 to 100 scale) ([3]; 125 g ai/ha Preemergence)","Foxtail, Giant plant response rating (0 to 100 scale) ([3]; 500 g ai/ha Preemergence)",Kochia plant response rating (0 to 100 scale) (kochia (Kochia scoparia) [4]; 125 g ai/ha Preemergence),Kochia plant response rating (0 to 100 scale) (kochia (Kochia scoparia) [4]; 500 g ai/ha Preemergence),Pigweed plant response rating (0 to 100 scale) ([5]; 125 g ai/ha Preemergence),Pigweed plant response rating (0 to 100 scale) ([5]; 500 g ai/ha Preemergence),Ragweed plant response rating (0 to 100 scale) ([6]; 125 g ai/ha Preemergence),Ragweed plant response rating (0 to 100 scale) ([6]; 500 g ai/ha Preemergence),"Ryegrass, Italian plant response rating (0 to 100 scale) [7]","Ryegrass, Italian plant response rating [7]",Barnyardgrass plant response rating (0 to 100 scale) [8],Barnyardgrass plant response rating [8],Blackgrass plant response rating (0 to 100 scale) [9],Blackgrass plant response rating [9],Corn plant response rating (0 to 100 scale) (corn (Zea mays)),Corn plant response rating (corn (Zea mays)),other results
C#CCn1nc(C)c(O)c(C(=NOC)c2cccc(Cl)c2)c1=O (mixture of isomers) [Compound 3],30,70,0,20,0,10,10,10,0,10,10,10,80,20,40,0,50,10,20,0,"Foxtail, Giant plant response rating (0 to 100 scale) [10]: 40; Foxtail, Giant plant response rating [10]: 10; Galium plant response rating (0 to 100 scale) [11]: 70; Galium plant response rating [11]: 30; Kochia plant response rating (0 to 100 scale) (kochia (Kochia scoparia) [12]): 50; Kochia plant response rating (kochia (Kochia scoparia) [12]): 10; Pigweed plant response rating (0 to 100 scale) [13]: 50; Pigweed plant response rating [13]: 20; Ragweed plant response rating (0 to 100 scale) [14]: 60; Ragweed plant response rating [14]: 20; Wheat plant response rating (0 to 100 scale) [15]: 10; Wheat plant response rating [15]: 0; Plant response rating, Barnyardgrass (0 to 100 scale, 0 is no effect, 100 is complete control) [16]: 0; Plant response rating, Ducksalad (0 to 100 scale, 0 is no effect, 100 is complete control) [17]: 0; Plant response rating, Rice (0 to 100 scale, 0 is no effect, 100 is complete control) (rice (Oryza sativa)): 0; Plant response rating, Sedge, Umbrella (0 to 100 scale, 0 is no effect, 100 is complete control) [18]: 0"
CON=C(c1cccc(Cl)c1)c1c(O)c(C)nn(CC2CC2)c1=O (mixture of isomers) [Compound 4],0,30,20,70,0,50,0,0,0,0,0,0,0,0,0,0,40,0,0,0,"Foxtail, Giant plant response rating (0 to 100 scale) [10]: 0; Foxtail, Giant plant response rating [10]: 0; Galium plant response rating (0 to 100 scale) [11]: 0; Galium plant response rating [11]: 0; Kochia plant response rating (0 to 100 scale) (kochia (Kochia scoparia) [12]): 0; Kochia plant response rating (kochia (Kochia scoparia) [12]): 0; Pigweed plant response rating (0 to 100 scale) [13]: 0; Pigweed plant response rating [13]: 0; Ragweed plant response rating (0 to 100 scale) [14]: 0; Ragweed plant response rating [14]: 0; Wheat plant response rating (0 to 100 scale) [15]: 0; Wheat plant response rating [15]: 0; Plant response rating, Barnyardgrass (0 to 100 scale, 0 is no effect, 100 is complete control) [16]: 0; Plant response rating, Ducksalad (0 to 100 scale, 0 is no effect, 100 is complete control) [17]: 0; Plant response rating, Rice (0 to 100 scale, 0 is no effect, 100 is complete control) (rice (Oryza sativa)): 0; Plant response rating, Sedge, Umbrella (0 to 100 scale, 0 is no effect, 100 is complete control) [18]: 0"
